Laboratory results as given in US20090227507A1, “Angiotensin (1-7) Dosage Forms and Uses Thereof” (UNIVERSITY OF SOUTHERN CALIFORNIA, priority 2008, published 2009).

Test system: CD34+ cells in peripheral blood
Test: Flow cytometry of peripheral blood, CD34+ progenitor cells; USB003 SC once daily for 7 days in healthy men
Type: in vivo, human
Design: key to Subjects with shift, Absolute CD34, N-L (normal to low) / Subjects with shift, Absolute CD34, N-H (normal to high) / Subjects with shift, Absolute CD34, L-N (low to normal) / Subjects with shift, Absolute CD34, H-N (high to normal): — signifies subject with no shift from baseline
Settings: for CD34^+, Absolute, Mean at Baseline: Baseline (Day 1)
Protocol: • Single-center, randomized, double-blind, placebo-controlled, 2 cohort dose-escalation trial of once daily dosing over a 7-day period (7 doses total): • Cohort 1: 2 subjects treated with placebo and 8 subjects treated with 200 μg/kg USB003 (A(1-7)) • Cohort 2: 2 subjects treated with placebo and 8 subjects treated with 300 μg/kg USB003 • For each cohort, there was a Screening Period, Treatment Phase, Follow-up Period, and Study Termination or Early Withdrawal Day. Subjects were confined to the study unit during the Treatment Phase. • Cohort 2 was treated approximately 1 week after completion of the Treatment Phase for Cohort 1 to allow time for the assessment of safety and tolerability in the first cohort.
Pharmacological Effect: The following evaluations (under efficacy and safety in the protocol) were performed: • Effects on the number of mature blood cells: • 1. CBC (with differential), platelet count, reticulocyte count. • Effects on early hematopoietic progenitor cells and mature lymphocyte subsets in the periphery: • 1. Flow cytometry to evaluate frequency of peripheral blood progenitor cells (eg, CD34^+) and lymphocyte subsets (eg, CD3, CD4, CD8) in peripheral blood. • 2. Collection of blood for later possible culture for progenitor cells (eg, colony forming units-granulocyte/macrophage [CFU-GM]) to evaluate potential effects on CD34^+ hematopoietic progenitor cells in peripheral blood. • 3.
The effect of USB003 on the number of mature blood cells was assessed by the complete blood count with differential, platelet and reticulocyte counts. The effects on early hematopoietic progenitor cells and mature lymphocyte subsets in the periphery were assessed by flow cytometry. In addition, blood was collected and processed to enable culture of progenitors at a later time.
Red blood cell (RBC) count, RBC indices, white blood cell count (WBC) with differential, reticulocyte count, platelet count, hemoglobin (Hb), hematocrit (Hct), plasma hemoglobin, peripheral flow cytometry, including CD34^+, flow cytometry for enumeration of CD3, CD4, and CD8 lymphocytes, and culture for progenitor cells in peripheral blood including colony-forming units-granulocyte/macrophage (CFU-GM).

For Asp-Arg-Val-Tyr-Ile-His-Pro [USB003], the “CD34^+, Absolute, Mean at Baseline” value (200 μg/kg) was 2.50 cells/μL, the “Subjects with shift, Absolute CD34, H-N (high to normal)” value (shortened to “Subjects with shift, Absolute CD34, H-N”) (200 μg/kg, Baseline to Day 8) was “—” and the “Subjects with shift, Absolute CD34, L-N (low to normal)” value (“Subjects with shift … (low to normal)” for short) (200 μg/kg, Baseline to Day 8) was “—”. For the same substance, the “Subjects with shift, Absolute CD34, N-H (normal to high)” value (shortened to “Subjects with shift, Absolute CD34, N-H”) (200 μg/kg, Baseline to Day 8) was “—”, the “Subjects with shift, Absolute CD34, N-L (normal to low)” value (“Subjects with shift … (normal to low)” for short) (200 μg/kg, Baseline to Day 8) was “—” and the “Subjects with shift, Absolute CD34, H-N” value (200 μg/kg, Baseline to Day 20) was “—”. The “Subjects with shift … (low to normal)” value (200 μg/kg, Baseline to Day 20) was “—”, the “Subjects with shift, Absolute CD34, N-H” value (200 μg/kg, Baseline to Day 20) was “—” and the “Subjects with shift … (normal to low)” value (200 μg/kg, Baseline to Day 20) was “—”. The “CD34^+, Absolute, Mean Change from Baseline” value (shortened to “CD34^+, Absolute, Mean Change”) (200 μg/kg, Day 3) was 0.23 cells/μL, the “CD34^+, Absolute, Mean Change” value (200 μg/kg, Day 5) was 0.61 cells/μL and the “CD34^+, Absolute, Mean Change” value (200 μg/kg, Day 7) was 1.11 cells/μL. For the same substance, the “CD34^+, Absolute, Mean Change” value (200 μg/kg, Day 8) was 0.33 cells/μL, the “CD34^+, Absolute, Mean Change” value (200 μg/kg, Day 11) was 0.13 cells/μL and the “CD34^+, Absolute, Mean Change” value (200 μg/kg, Day 14) was 0.61 cells/μL. The “CD34^+, Absolute, Mean Change” value (200 μg/kg, Day 17) was −0.40 cells/μL, the “CD34^+, Absolute, Mean Change” value (200 μg/kg, Day 20) was −0.46 cells/μL and the “CD34^+, Absolute, Mean at Baseline” value (300 μg/kg) was 2.55 cells/μL. For the same substance, the “Subjects with shift, Absolute CD34, H-N” value (300 μg/kg, Baseline to Day 8) was “—”, the “Subjects with shift … (low to normal)” value (300 μg/kg, Baseline to Day 8) was “—” and the “Subjects with shift, Absolute CD34, N-H” value (300 μg/kg, Baseline to Day 8) was “—”. For the same substance, the “Subjects with shift … (normal to low)” value (300 μg/kg, Baseline to Day 8) was “—”, the “Subjects with shift, Absolute CD34, H-N” value (300 μg/kg, Baseline to Day 20) was “—” and the “Subjects with shift … (low to normal)” value (300 μg/kg, Baseline to Day 20) was “—”. The “Subjects with shift, Absolute CD34, N-H” value (300 μg/kg, Baseline to Day 20) was “—”, the “Subjects with shift … (normal to low)” value (300 μg/kg, Baseline to Day 20) was “—” and the “CD34^+, Absolute, Mean Change” value (300 μg/kg, Day 3) was 1.80 cells/μL. For the same substance, the “CD34^+, Absolute, Mean Change” value (300 μg/kg, Day 5) was 0.56 cells/μL, the “CD34^+, Absolute, Mean Change” value (300 μg/kg, Day 7) was −0.01 cells/μL and the “CD34^+, Absolute, Mean Change” value (300 μg/kg, Day 8) was 0.88 cells/μL. The “CD34^+, Absolute, Mean Change” value (300 μg/kg, Day 11) was −0.74 cells/μL, the “CD34^+, Absolute, Mean Change” value (300 μg/kg, Day 14) was −0.41 cells/μL and the “CD34^+, Absolute, Mean Change” value (300 μg/kg, Day 17) was −0.31 cells/μL. The “CD34^+, Absolute, Mean Change” value (300 μg/kg, Day 20) was −0.35 cells/μL and the “change in the number of CD34+ cells in the peripheral blood” value (last day of treatment, not observed 12 days after administration) was “dose-related change”.
